Measurements published in US8975259B2, “Compositions and methods for inhibiting G protein signaling” (University of Rochester, priority 2007, dated 2015).

What was measured:
PLCβ3-bGβ1γ2 interaction = target: T1, PLCβ3-bGβ1γ2 interaction (UniProt P54311+P63212); assay: PLCβ3 binding to biotinylated Gβ1γ2 (avidin agarose precipitation); conditions: M119 10 μM, M201 1 μM; result in words
T1 construct: made in house; host or cells: bGβ1γ2: Sf9 insect cells
Experimental: Purified PLCβ2 (0.25 ng) was assayed in the presence (▴) or absence (▪) of 100 nM purified Gβ1γ2. […] Assays contained 10 ng of purified p101/p110 PI3Kγ heterodimer with or without 100 nM purified Gβ1γ2. Left panel: (▴) 100 nM Gβ1γ2 or (▪) no βγ. […] M119 or M201 and 25 nM purified GRK2 were added simultaneously to 250 nM biotinylated Gβ1γ2 (bGβ1γ2) immobilized on streptavidin agarose. GRK2 was detected with antibody to GRK2. Data are representative (mean ±SEM, except D) repeated at least three times each. […] 30 nM bGβ1γ2 was incubated with either 30 nM PLCβ2 or PLCβ3 in the presence or absence of M119 or M201 for 16 h at 4° C. before precipitation with avidin agarose and detection with PLCβ2,or Gβ antibodies. […] Same as 4E with PLCβ3.

[1] = test system: human δ opioid receptor (hDOR-CHO cells); assay: Total inositol phosphate assay in hDOR-CHO cells; format: cell-based; conditions: DPDPE, Deltorphin II, M119 10 μM; naltrindole 100 μM; result in words
Experimental: Chinese hamster ovary (CHO) cells stably expressing either the human κ (hKOR-CHO), δ (hDOR-CHO)(L. Toll, Stanford Research Institute, Palo Alto, Calif.) or μ (hMOR-CHO)(G. Uhl, National Institute on Drug Abuse, Baltimore, Md.) opioid receptor were used in the experiments. Cells in 6-well plates were labeled by adding 4 μCi of [^3H]inositol for 24 hr in inositol-free F-10 media, without serum. After labeling, LiCl was added directly to the labeling media at a final concentration of 10 mM. Ligands or peptides were added at the same time. The final volume of each well was 1 mL. The plates were put back in to the incubator at 37° C. for 30 min after which time the medium was aspirated and the plates were washed twice with 1× PBS. Ice-cold 50 mM formic acid, 1 mL, was added to the plates which were placed in the cold room at 4° C. for 30 min. After the incubation, the contents of the plates were applied to Dowex AG1-X8 columns and allowed to flow all the way through the column. The columns were washed, twice each, with 50 and 100 mM formic acid, for a total of four washes, followed by elution of the IP-containing fraction with 3 mL of 1.2 M ammonium formate/0.1 M formic acid. The eluted fraction was mixed with Scintisafe scintillation fluid, for high salt, and counted. The data are represented as the fold increase over control in total inositol phospates. All experiments were repeated three times and performed in duplicate. Control cells for each experiment were labeled with [^3H]inositol and LiCl, in the same manner as the treatment groups.

[2] = test system: GRK2 membrane recruitment in adult mouse cardiomyocytes; assay: β-AR-mediated GRK2 membrane recruitment in isolated adult mouse cardiomyocytes; format: cell-based; conditions: result in words
Experimental: Thus, it was tested whether M119 could block GRK2 recruitment to membrane-bound Gβγ subunits upon agonist stimulation of β-AR in cardiomyocytes, similar to what had been observed in vitro with the peptide inhibitors described above. Indeed M119 reduced β-AR-mediated recruitment of GRK2 to membranes of isolated adult mouse cardiomyocytes, with a mild reduction of membrane associated GRK2 at baseline.

[3] = test system: opioid-induced antinociception in mice; conditions: M119 100 nmol i.c.v. with morphine i.c.v.; Bonacci et al., 2006; cited from earlier work

T1 sequence (P54311 whole entry): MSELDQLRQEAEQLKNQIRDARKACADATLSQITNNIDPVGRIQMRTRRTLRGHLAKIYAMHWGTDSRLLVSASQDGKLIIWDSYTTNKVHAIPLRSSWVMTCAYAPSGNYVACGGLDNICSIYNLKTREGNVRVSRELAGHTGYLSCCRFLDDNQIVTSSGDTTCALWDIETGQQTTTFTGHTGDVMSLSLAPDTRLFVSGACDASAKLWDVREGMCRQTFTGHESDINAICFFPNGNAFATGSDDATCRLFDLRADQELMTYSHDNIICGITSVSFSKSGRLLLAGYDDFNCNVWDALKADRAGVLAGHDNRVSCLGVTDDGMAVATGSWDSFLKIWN
T1 sequence (P63212 2-68 limits assumed): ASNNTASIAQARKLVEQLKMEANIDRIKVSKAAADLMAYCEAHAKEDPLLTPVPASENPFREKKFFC

O=C(O)C1CCCCC1c1c2ccc(=O)c(O)c-2oc2c(O)c(O)ccc12 (stereo not shown) [Compound M119, cyclohexanecarboxylic acid, 2-(4,5,6-trihydroxy-3-oxo-3H-xanthen-9-yl)-(9cl)]
effect on direct binding of bGβ1γ2 to PLCβ3 (PLCβ3-bGβ1γ2 interaction): inhibited
effect on IP generation over control treated cells [1]: no significant effect
effect on β-AR-mediated recruitment of GRK2 to membranes [2]: reduced
leftward shift / potentiation of morphine dose-response [3]: 10 fold
